Results: patent publication US11358957B2, “Microbiocidal oxadiazole derivatives” (SYNGENTA PARTICIPATIONS AG, priority 2017, dated 2022)

Columns and labels:
[1] = test system: Glomerella lagenarium (Colletotrichum lagenarium); experiment: Fungicidal activity against Glomerella lagenarium (Colletotrichum lagenarium) liquid culture / cucumber / preventative (anthracnose); format: cell-based; details: Colletotrichum orbiculare; 20 ppm in the applied formulation; liquid culture (PDB), inhibition of growth measured photometrically 3 to 4 days after application; compared to untreated; read-out: disease control
Description: Mycelia fragments or conidia suspensions of a fungus prepared either freshly from liquid cultures of the fungus or from cryogenic storage, are directly mixed into nutrient broth. DMSO solutions of the test compound (max. 10 mg/mL) are diluted with 0.025% Tween20 by a factor of 50 and 10 μL of this solution is pipetted into a microtiter plate (96-well format). The nutrient broth containing the fungal spores/mycelia fragments is then added to give an end concentration of the tested compound. The test plates are incubated in the dark at 24° C. and 96% relative humidity. The inhibition of fungal growth is determined photometrically after 2 to 7 days, depending on the pathosystem, and percent antifungal activity relative to the untreated check is calculated. Conidia of the fungus from cryogenic storage are directly mixed into nutrient broth (PDB—potato dextrose broth). After placing a (DMSO) solution of test compound into a microtiter plate (96-well format), the nutrient broth containing the fungal spores is added. The test plates are incubated at 24° C. and the inhibition of growth is measured photometrically 3 to 4 days after application. The following compounds at 20 ppm in the applied formulation give at least 80% disease control in this test when compared to untreated control under the same conditions, which show extensive disease development.

[2] = test system: Puccinia recondita f. Sp. Tritici; experiment: Fungicidal activity against Puccinia recondita f. sp. tritici / wheat / leaf disc preventative (brown rust); format: in vivo; details: foliar, 200 ppm in the applied formulation, wheat leaf segments cv. Kanzler, preventative (inoculated 1 day after application), compared to untreated, read-out: disease control
Description: Leaf disks or leaf segments of various plant species are cut from plants grown in a greenhouse. The cut leaf disks or segments are placed in multiwell plates (24-well format) onto water agar. The leaf disks are sprayed with a test solution before (preventative) or after (curative) inoculation. Compounds to be tested are prepared as DMSO solutions (max. 10 mg/mL) which are diluted to the appropriate concentration with 0.025% Tween20 just before spraying. The inoculated leaf disks or segments are incubated under defined conditions (temperature, relative humidity, light, etc.) according to the respective test system. A single evaluation of disease level is carried out 3 to 14 days after inoculation, depending on the pathosystem. Percent disease control relative to the untreated check leaf disks or segments is then calculated. Wheat leaf segments cv. Kanzler were placed on agar in multiwell plates (24-well format) and sprayed with the formulated test compound diluted in water. The leaf disks were inoculated with a spore suspension of the fungus 1 day after application. The inoculated leaf segments were incubated at 19° C. and 75% relative humidity (rh) under a light regime of 12 hours light/12 hours darkness in a climate cabinet and the activity of a compound was assessed as percent disease control compared to untreated when an appropriate level of disease damage appears in untreated check leaf segments (7 to 9 days after application). The following compounds at 200 ppm in the applied formulation give at least 80% disease control in this test when compared to untreated control leaf disks under the same conditions, which show extensive disease development.

[3] = test system: Puccinia recondita f. Sp. Tritici; experiment: Fungicidal activity against Puccinia recondita f. sp. tritici / wheat / leaf disc curative (brown rust); format: in vivo; details: foliar, 24 h, 200 ppm in the applied formulation, wheat leaf segments cv. Kanzler, curative (applied 1 day after inoculation), compared to untreated, read-out: disease control
Description: Leaf disks or leaf segments of various plant species are cut from plants grown in a greenhouse. The cut leaf disks or segments are placed in multiwell plates (24-well format) onto water agar. The leaf disks are sprayed with a test solution before (preventative) or after (curative) inoculation. Compounds to be tested are prepared as DMSO solutions (max. 10 mg/mL) which are diluted to the appropriate concentration with 0.025% Tween20 just before spraying. The inoculated leaf disks or segments are incubated under defined conditions (temperature, relative humidity, light, etc.) according to the respective test system. A single evaluation of disease level is carried out 3 to 14 days after inoculation, depending on the pathosystem. Percent disease control relative to the untreated check leaf disks or segments is then calculated. Wheat leaf segments cv. Kanzler are placed on agar in multiwell plates (24-well format). The leaf segments are then inoculated with a spore suspension of the fungus. Plates were stored in darkness at 19C and 75% relative humidity. The formulated test compound diluted in water was applied 1 day after inoculation. The leaf segments were incubated at 19° C. and 75% relative humidity under a light regime of 12 hours light/12 hours darkness in a climate cabinet and the activity of a compound was assessed as percent disease control compared to untreated when an appropriate level of disease damage appears in untreated check leaf segments (6 to 8 days after application). The following compounds at 200 ppm in the applied formulation give at least 80% disease control in this test when compared to untreated control leaf disks under the same conditions, which show extensive disease development.

O=C(NCc1ccco1)c1cnn(Cc2ccc(-c3noc(C(F)(F)F)n3)s2)c1 [Compound 1.129, N-(2-furylmethyl)-1-[[5-[5-(trifluoromethyl)-1,2,4-oxadiazol-3-yl]-2-thienyl]methyl]pyrazole-4-carboxamide]
≥ 80%: inhibition of growth at 20 ppm [1] | pest or weed control at 200 ppm [2] | pest or weed control at 200 ppm [3]

CCN(CC)C(=O)c1ccn(Cc2ccc(-c3noc(C(F)(F)F)n3)s2)n1 [Compound 1.128, N,N-diethyl-1-[[5-[5-(trifluoromethyl)-1,2,4-oxadiazol-3-yl]-2-thienyl]methyl]pyrazole-3-carboxamide]
≥ 80%: inhibition of growth at 20 ppm [1] | pest or weed control at 200 ppm [2] | pest or weed control at 200 ppm [3]

O=C(NCc1ccco1)c1ncn(Cc2ccc(-c3noc(C(F)(F)F)n3)s2)n1 [Compound 1.96, N-(2-furylmethyl)-1-[[5-[5-(trifluoromethyl)-1,2,4-oxadiazol-3-yl]-2-thienyl]methyl]-1,2,4-triazole-3-carboxamide]
≥ 80%: inhibition of growth at 20 ppm [1] | pest or weed control at 200 ppm [2] | pest or weed control at 200 ppm [3]

CCC(C)NC(=O)c1ncn(Cc2ccc(-c3noc(C(F)(F)F)n3)s2)n1 (stereo not drawn) [Compound 1.144, N-sec-butyl-1-[[5-[5-(trifluoromethyl)-1,2,4-oxadiazol-3-yl]-2-thienyl]methyl]-1,2,4-triazole-3-carboxamide]
≥ 80%: inhibition of growth at 20 ppm [1] | pest or weed control at 200 ppm [2] | pest or weed control at 200 ppm [3]

Cc1cc(N)n(Cc2ccc(-c3noc(C(F)(F)F)n3)s2)n1 [Compound 1.16, 5-methyl-2-[[5-[5-(trifluoromethyl)-1,2,4-oxadiazol-3-yl]-2-thienyl]methyl]pyrazol-3-amine]
≥ 80%: inhibition of growth at 20 ppm [1] | pest or weed control at 200 ppm [2] | pest or weed control at 200 ppm [3]

CC(C)(C)CNC(=O)c1cnn(Cc2ccc(-c3noc(C(F)(F)F)n3)s2)c1 [Compound 1.101, N-(2,2-dimethylpropyl)-1-[[5-[5-(trifluoromethyl)-1,2,4-oxadiazol-3-yl]-2-thienyl]methyl]pyrazole-4-carboxamide]
≥ 80%: inhibition of growth at 20 ppm [1] | pest or weed control at 200 ppm [2] | pest or weed control at 200 ppm [3]

O=C(NC1CCC1)c1ncn(Cc2ccc(-c3noc(C(F)(F)F)n3)s2)n1 [Compound 1.91, N-cyclobutyl-1-[[5-[5-(trifluoromethyl)-1,2,4-oxadiazol-3-yl]-2-thienyl]methyl]-1,2,4-triazole-3-carboxamide]
≥ 80%: inhibition of growth at 20 ppm [1] | pest or weed control at 200 ppm [2] | pest or weed control at 200 ppm [3]

CC(C)(C)CNC(=O)c1ncn(Cc2ccc(-c3noc(C(F)(F)F)n3)s2)n1 [Compound 1.145, N-(2,2-dimethylpropyl)-1-[[5-[5-(trifluoromethyl)-1,2,4-oxadiazol-3-yl]-2-thienyl]methyl]-1,2,4-triazole-3-carboxamide]
≥ 80%: inhibition of growth at 20 ppm [1] | pest or weed control at 200 ppm [2] | pest or weed control at 200 ppm [3]

O=C(NC1CCCC1)c1ncn(Cc2ccc(-c3noc(C(F)(F)F)n3)s2)n1 [Compound 1.94, N-cyclopentyl-1-[[5-[5-(trifluoromethyl)-1,2,4-oxadiazol-3-yl]-2-thienyl]methyl]-1,2,4-triazole-3-carboxamide]
≥ 80%: inhibition of growth at 20 ppm [1] | pest or weed control at 200 ppm [2] | pest or weed control at 200 ppm [3]

CCN(C)C(=O)c1cnn(C(C)c2ccc(-c3noc(C(F)(F)F)n3)s2)c1 (stereo not drawn) [Compound 1.88, N-ethyl-N-methyl-1-[1-[5-[5-(trifluoromethyl)-1,2,4-oxadiazol-3-yl]-2-thienyl]ethyl]pyrazole-4-carboxamide]
≥ 80%: inhibition of growth at 20 ppm [1] | pest or weed control at 200 ppm [2] | pest or weed control at 200 ppm [3]

CCNC(=O)c1ccn(Cc2ccc(-c3noc(C(F)(F)F)n3)s2)n1 [Compound 1.120, N-ethyl-1-[[5-[5-(trifluoromethyl)-1,2,4-oxadiazol-3-yl]-2-thienyl]methyl]pyrazole-3-carboxamide]
≥ 80%: inhibition of growth at 20 ppm [1] | pest or weed control at 200 ppm [2] | pest or weed control at 200 ppm [3]

N#Cc1cnn(Cc2ccc(-c3noc(C(F)(F)F)n3)s2)c1 [Compound 1.11, 1-[[5-[5-(trifluoromethyl)-1,2,4-oxadiazol-3-yl]-2-thienyl]methyl]pyrazole-4-carbonitrile]
≥ 80%: inhibition of growth at 20 ppm [1] | pest or weed control at 200 ppm [2] | pest or weed control at 200 ppm [3]

O=C(NC1CC1)c1ccn(Cc2ccc(-c3noc(C(F)(F)F)n3)s2)n1 [Compound 1.126, N-cyclopropyl-1-[[5-[5-(trifluoromethyl)-1,2,4-oxadiazol-3-yl]-2-thienyl]methyl]pyrazole-3-carboxamide]
≥ 80%: inhibition of growth at 20 ppm [1] | pest or weed control at 200 ppm [2] | pest or weed control at 200 ppm [3]

C=CCNC(=O)c1ccn(Cc2ccc(-c3noc(C(F)(F)F)n3)s2)n1 [Compound 1.122, N-allyl-1-[[5-[5-(trifluoromethyl)-1,2,4-oxadiazol-3-yl]-2-thienyl]methyl]pyrazole-3-carboxamide]
≥ 80%: inhibition of growth at 20 ppm [1] | pest or weed control at 200 ppm [2] | pest or weed control at 200 ppm [3]

O=C(c1ccnn1Cc1ccc(-c2noc(C(F)(F)F)n2)s1)N1CCOCC1 [Compound 1.166, morpholino-[2-[[5-[5-(trifluoromethyl)-1,2,4-oxadiazol-3-yl]-2-thienyl]methyl]pyrazol-3-yl]methanone]
≥ 80%: inhibition of growth at 20 ppm [1] | pest or weed control at 200 ppm [2] | pest or weed control at 200 ppm [3]

C#CCNC(=O)c1ccnn1Cc1ccc(-c2noc(C(F)(F)F)n2)s1 [Compound 1.168, N-prop-2-ynyl-2-[[5-[5-(trifluoromethyl)-1,2,4-oxadiazol-3-yl]-2-thienyl]methyl]pyrazole-3-carboxamide]
≥ 80%: inhibition of growth at 20 ppm [1] | pest or weed control at 200 ppm [2] | pest or weed control at 200 ppm [3]

CON(C)C(=O)c1ccnn1Cc1ccc(-c2noc(C(F)(F)F)n2)s1 [Compound 1.158, N-methoxy-N-methyl-2-[[5-[5-(trifluoromethyl)-1,2,4-oxadiazol-3-yl]-2-thienyl]methyl]pyrazole-3-carboxamide]
≥ 80%: inhibition of growth at 20 ppm [1] | pest or weed control at 200 ppm [2] | pest or weed control at 200 ppm [3]

CCNC(=O)c1cnn(Cc2ccc(-c3noc(C(F)(F)F)n3)s2)c1 [Compound 1.106, N-ethyl-1-[[5-[5-(trifluoromethyl)-1,2,4-oxadiazol-3-yl]-2-thienyl]methyl]pyrazole-4-carboxamide]
≥ 80%: inhibition of growth at 20 ppm [1] | pest or weed control at 200 ppm [2] | pest or weed control at 200 ppm [3]

O=C(NC1CCCCC1)c1cnn(Cc2ccc(-c3noc(C(F)(F)F)n3)s2)c1 [Compound 1.105, N-cyclohexyl-1-[[5-[5-(trifluoromethyl)-1,2,4-oxadiazol-3-yl]-2-thienyl]methyl]pyrazole-4-carboxamide]
≥ 80%: inhibition of growth at 20 ppm [1] | pest or weed control at 200 ppm [2] | pest or weed control at 200 ppm [3]
